Experimental findings from patent publication US10301295B2, “Herbicidal compounds” (Syngenta Participations AG, priority 2014, dated 2019) are described below.

Like-named read-outs stand apart in the source and are kept apart here.

Format in all cases: in vivo
One experiment concerns wheat. As to the kind of experiment: Post-emergence herbicidal activity against cereal crops (wheat) +/- safener, crop selectivity. Particulars: 100%=total damage to plant, 0%=no damage; for Post-emergence herbicidal activity against wheat (percentage phytotoxicity), +CQC: 250 g/ha, plus safener cloquintocet-mexyl (CQC) applied at 50 g/ha; for percent phytotoxicity (crop damage) to wheat at 250 g/ha: Triticum aestivum, 360 h, without safener, read-out: Post-emergence herbicidal activity against wheat (percentage phytotoxicity), Wheat - CQC. Put shortly:
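Test plants raised in pots in a glasshouse (24/18 °C warm or 20/16 °C cool species day/night, 16 h light, 65% humidity) and treated post-emergence about 12 days after sowing. Visual percentage phytotoxicity scored 15 days after application (0% = no damage, 100% = total damage).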

The subject of a further experiment is Lolium perenne (LOLPE). The experiment in a line: Glasshouse assay for herbicidal activity, pre-/post-emergence (percentage phytotoxicity). Particulars: Lolium perenne, Rate 250 g/ha, 100%=total damage, 0%=no damage. Put shortly: (§1)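 Visual score (0–100% damage) at 15DAA post-em / 20DAA pre-em. Pots, std soil; treated 1 d (pre) or ~12 d (post) after sowing. 24/18 °C warm spp., 20/16 °C cool spp., 16 h light, 65% RH.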

In a further experiment the test system is Avena fatua (AVEFA). The description is as above. Particulars: Avena fatua, Rate 250 g/ha, 100%=total damage, 0%=no damage. Put shortly: as §1
Experiment [1] relates to Alopecurus myosuroides (ALOMY). Described as above. The conditions noted are these: Alopecurus myosuroides, Rate 250 g/ha, 100%=total damage, 0%=no damage. Put shortly:
as §1

The test system of experiment [2] is Echinochloa crus-galli (ECHCG). The experiment is described as above. Particulars: Echinochloa crus-galli, Rate 250 g/ha, 100%=total damage, 0%=no damage. Put shortly: as §1
Where [3] appears, read: post-emergence, 360 h, post-emergence, visual assessment 15 DAA, read-out: Post-emergence herbicidal activity (percentage phytotoxicity), LOLPE POST.
Where [4] appears, read: pre-emergence, 480 h, pre-emergence, visual assessment 20 DAA, read-out: Pre-emergence herbicidal activity (percentage phytotoxicity), LOLPE PRE.
Where [5] appears, read: post-emergence, 360 h, post-emergence, visual assessment 15 DAA, read-out: Post-emergence herbicidal activity (percentage phytotoxicity), AVEFA POST.
[6] abbreviates: pre-emergence, 480 h, pre-emergence, visual assessment 20 DAA, read-out: Pre-emergence herbicidal activity (percentage phytotoxicity), AVEFA PRE.
[7] abbreviates: 360 h, post-emergence, visual assessment 15 DAA, read-out: Post-emergence herbicidal activity (percentage phytotoxicity), ALOMY POST.
Where [8] appears, read: 480 h, pre-emergence, visual assessment 20 DAA, read-out: Pre-emergence herbicidal activity (percentage phytotoxicity), ALOMY PRE.
Where [9] appears, read: post-emergence, 360 h, post-emergence, visual assessment 15 DAA, read-out: Post-emergence herbicidal activity (percentage phytotoxicity), ECHCG POST.
[10] abbreviates: pre-emergence, 480 h, pre-emergence, visual assessment 20 DAA, read-out: Pre-emergence herbicidal activity (percentage phytotoxicity), ECHCG PRE.

`Cc1cc(C)c(C2C(=O)CC(CCNC(=O)Nc3ccccc3F)C2=O)c(C)c1` (stereo not drawn) [Compound A45]: the “Post-emergence herbicidal activity against wheat (percentage phytotoxicity), +CQC” value in the experiment on wheat amounted to 0%. Besides, the percent phytotoxicity (crop damage) to wheat at 250 g/ha with wheat came to 0%. Further, the pest or weed control at 250 g/ha in the experiment with Lolium perenne (LOLPE) (setting [3]) was found to be 80%; in the experiment on Lolium perenne (LOLPE) (setting [4]), 90%; with Avena fatua (AVEFA) (setting [5]), 0%; with Avena fatua (AVEFA) (setting [6]), 0%; in experiment [1] (setting [7]), 20%; in experiment [1] (setting [8]), 0%. The pest or weed control at 250 g/ha was determined as 40% in experiment [2] (setting [9]) and 80% in experiment [2] (setting [10]).

With `Cc1cc(C)c(C2C(=O)CC(CCNC(=O)NO)C2=O)c(C)c1` (stereo not drawn) [Compound A26], the “Post-emergence herbicidal activity against wheat (percentage phytotoxicity), +CQC” value in the experiment on wheat was found to be 10%. The percent phytotoxicity (crop damage) to wheat at 250 g/ha in the experiment on wheat came out at 0%. Moreover, the pest or weed control at 250 g/ha worked out at 40% in the experiment with Lolium perenne (LOLPE) (setting [3]); 0% in the experiment on Lolium perenne (LOLPE) (setting [4]); 0% in the experiment with Avena fatua (AVEFA) (setting [5]); 0% with Avena fatua (AVEFA) (setting [6]); 10% in experiment [1] (setting [7]); 0% in experiment [1] (setting [8]). Besides, the pest or weed control at 250 g/ha in experiment [2] (setting [9]) came to 10%; in experiment [2] (setting [10]), 0%.

In the case of `Cc1cc(C)c(C2C(=O)CC(CCNC(=O)N(C)Cc3ccccc3)C2=O)c(C)c1` (stereo not drawn) [Compound A10], the “Post-emergence herbicidal activity against wheat (percentage phytotoxicity), +CQC” value in the experiment with wheat was determined as 20%. Moreover, in the experiment with wheat, the percent phytotoxicity (crop damage) to wheat at 250 g/ha stood at 70%. The pest or weed control at 250 g/ha with Lolium perenne (LOLPE) (setting [3]) worked out at 90%; in the experiment on Lolium perenne (LOLPE) (setting [4]), 0%; in the experiment with Avena fatua (AVEFA) (setting [5]), 80%; in the experiment on Avena fatua (AVEFA) (setting [6]), 0%; in experiment [1] (setting [7]), 80%; in experiment [1] (setting [8]) it was 0%. The pest or weed control at 250 g/ha is 90% in experiment [2] (setting [9]) and 0% in experiment [2] (setting [10]).

Regarding `Cc1cc(-n2cc(Cl)cn2)cc(C)c1C1C(=O)CC(CCNS(=O)(=O)c2ccc(Cl)cc2)C1=O` (stereo not drawn) [Compound A37], in the experiment on wheat, the “Post-emergence herbicidal activity against wheat (percentage phytotoxicity), +CQC” value amounted to 10%. Besides, the percent phytotoxicity (crop damage) to wheat at 250 g/ha in the experiment with wheat amounted to 20%. Besides, the pest or weed control at 250 g/ha (in the experiment with Lolium perenne (LOLPE) (setting [3]); in the experiment with Lolium perenne (LOLPE) (setting [4]); in the experiment with Avena fatua (AVEFA) (setting [5]); in the experiment on Avena fatua (AVEFA) (setting [6]); in experiment [1] (setting [7]); in experiment [1] (setting [8])) was 0% each time. The pest or weed control at 250 g/ha in experiment [2] (setting [9]) turned out to be 30%; in experiment [2] (setting [10]), 0%.

As for `CC(=NOCc1ccccc1)C(=O)NCCC1CC(=O)C(c2c(C)cc(C)cc2C)C1=O` (stereo not drawn) [Compound A44], the “Post-emergence herbicidal activity against wheat (percentage phytotoxicity), +CQC” value in the experiment with wheat stood at 10%. The percent phytotoxicity (crop damage) to wheat at 250 g/ha in the experiment with wheat worked out at 30%. The pest or weed control at 250 g/ha with Lolium perenne (LOLPE) (setting [3]) stood at 0%; with Lolium perenne (LOLPE) (setting [4]), 10%; in the experiment with Avena fatua (AVEFA) (setting [5]) it was 0%; in the experiment on Avena fatua (AVEFA) (setting [6]) it was 0%; in experiment [1] (setting [7]), 0%; in experiment [1] (setting [8]) it was 0%. Moreover, the figures for the pest or weed control at 250 g/ha in experiment [2] (setting [9]) and in experiment [2] (setting [10]) were 70% and 0%, respectively.

For `Cc1cc(-n2cc(Cl)cn2)cc(C)c1C1C(=O)CC(CCNC(=O)Nc2ccc(F)cn2)C1=O` (stereo not drawn) [Compound A28], the “Post-emergence herbicidal activity against wheat (percentage phytotoxicity), +CQC” value in the experiment on wheat turned out to be 20%. The percent phytotoxicity (crop damage) to wheat at 250 g/ha in the experiment with wheat amounted to 80%. The pest or weed control at 250 g/ha with Lolium perenne (LOLPE) (setting [3]) turned out to be 80%; with Lolium perenne (LOLPE) (setting [4]), 70%; with Avena fatua (AVEFA) (setting [5]), 100%; in the experiment with Avena fatua (AVEFA) (setting [6]) it was 70%; in experiment [1] (setting [7]) it was 90%; in experiment [1] (setting [8]), 70%. The pest or weed control at 250 g/ha in experiment [2] (setting [9]) and in experiment [2] (setting [10]) was 90% in each case.

`Cc1cc(-c2ncc(Cl)cc2F)cc(C)c1C1C(=O)CC(CCNC(=O)Nc2ccccn2)C1=O` (stereo not drawn) [Compound A19]: in the experiment with wheat, the “Post-emergence herbicidal activity against wheat (percentage phytotoxicity), +CQC” value came to 80%. For the same compound, in the experiment on wheat, the percent phytotoxicity (crop damage) to wheat at 250 g/ha was found to be 80%. The pest or weed control at 250 g/ha came to 100% in the experiment with Lolium perenne (LOLPE) (setting [3]); 80% in the experiment with Lolium perenne (LOLPE) (setting [4]); 100% in the experiment on Avena fatua (AVEFA) (setting [5]); 90% in the experiment with Avena fatua (AVEFA) (setting [6]); 90% in experiment [1] (setting [7]); 70% in experiment [1] (setting [8]). The pest or weed control at 250 g/ha was 100% in experiment [2] (setting [9]) and 80% in experiment [2] (setting [10]).

Take `Cc1cc(C)c(C2C(=O)CC(CCNC(=O)N(C)c3ccccn3)C2=O)c(C)c1` (stereo not drawn) [Compound A11]: the “Post-emergence herbicidal activity against wheat (percentage phytotoxicity), +CQC” value with wheat turned out to be 70%. Further, in the experiment on wheat, the percent phytotoxicity (crop damage) to wheat at 250 g/ha came to 80%. Also, the pest or weed control at 250 g/ha is 100% with Lolium perenne (LOLPE) (setting [3]); 100% with Lolium perenne (LOLPE) (setting [4]); 90% in the experiment on Avena fatua (AVEFA) (setting [5]); 90% in the experiment with Avena fatua (AVEFA) (setting [6]); 90% in experiment [1] (setting [7]); 100% in experiment [1] (setting [8]). The pest or weed control at 250 g/ha in experiment [2] (setting [9]) is 90%; in experiment [2] (setting [10]), 100%.

Turning to `Cc1cc(C)c(C2C(=O)CC(CCNC(=O)NC(=O)c3ccc(Cl)c(F)c3)C2=O)c(C)c1` (stereo not drawn) [Compound A58], the “Post-emergence herbicidal activity against wheat (percentage phytotoxicity), +CQC” value with wheat is given as 20%. In addition, in the experiment with wheat, the percent phytotoxicity (crop damage) to wheat at 250 g/ha stood at 80%. The pest or weed control at 250 g/ha with Lolium perenne (LOLPE) (setting [3]) was 90%; in the experiment on Lolium perenne (LOLPE) (setting [4]), 0%; with Avena fatua (AVEFA) (setting [5]), 10%; in the experiment with Avena fatua (AVEFA) (setting [6]) it was 0%; in experiment [1] (setting [7]), 40%; in experiment [1] (setting [8]) it was 0%. Also, the figures for the pest or weed control at 250 g/ha in experiment [2] (setting [9]) and in experiment [2] (setting [10]) were 80% and 0%, respectively.

As to `Cc1cc(-n2cc(Cl)cn2)cc(C)c1C1C(=O)CC(CCNC(=O)Nc2ncccn2)C1=O.Cl` (stereo not drawn) [Compound A32], the “Post-emergence herbicidal activity against wheat (percentage phytotoxicity), +CQC” value with wheat is 10%. The percent phytotoxicity (crop damage) to wheat at 250 g/ha with wheat stood at 60%. Moreover, the pest or weed control at 250 g/ha was found to be 60% in the experiment on Lolium perenne (LOLPE) (setting [3]); 60% in the experiment with Lolium perenne (LOLPE) (setting [4]); 100% with Avena fatua (AVEFA) (setting [5]); 50% with Avena fatua (AVEFA) (setting [6]); 80% in experiment [1] (setting [7]); 70% in experiment [1] (setting [8]). In addition, the results for the pest or weed control at 250 g/ha in experiment [2] (setting [9]) and in experiment [2] (setting [10]) were 100% and 80%, respectively.

Take `Cc1cc(C)c(C2C(=O)CC(CCNC(=O)NC(=O)c3ccccn3)C2=O)c(C)c1` (stereo not drawn) [Compound A1, N-[2-[2,4-dioxo-3-(2,4,6-trimethylphenyl)cyclopentyl]ethylcarbamoyl]pyridine-2-carboxamide]: the “Post-emergence herbicidal activity against wheat (percentage phytotoxicity), +CQC” value with wheat was determined as 20%. Moreover, in the experiment on wheat, the percent phytotoxicity (crop damage) to wheat at 250 g/ha is 80%. Also, the pest or weed control at 250 g/ha in the experiment on Lolium perenne (LOLPE) (setting [3]) was found to be 90%; with Lolium perenne (LOLPE) (setting [4]) it was 100%; in the experiment on Avena fatua (AVEFA) (setting [5]), 90%; in the experiment on Avena fatua (AVEFA) (setting [6]), 60%; in experiment [1] (setting [7]), 90%; in experiment [1] (setting [8]) it was 80%. The pest or weed control at 250 g/ha came out at 80% in experiment [2] (setting [9]) and 100% in experiment [2] (setting [10]).

Turning to `Cc1cc(C)c(C2C(=O)CC(CCNC(=O)Nc3ccc(F)cn3)C2=O)c(C)c1` (stereo not drawn) [Compound A12], the “Post-emergence herbicidal activity against wheat (percentage phytotoxicity), +CQC” value with wheat was determined as 80%. Moreover, the percent phytotoxicity (crop damage) to wheat at 250 g/ha in the experiment with wheat amounted to 90%. Moreover, the pest or weed control at 250 g/ha (with Lolium perenne (LOLPE) (setting [3]); with Lolium perenne (LOLPE) (setting [4]); with Avena fatua (AVEFA) (setting [5]); in the experiment on Avena fatua (AVEFA) (setting [6]); in experiment [1] (setting [7]); in experiment [1] (setting [8])) was 90% each time. The figures for the pest or weed control at 250 g/ha in experiment [2] (setting [9]) and in experiment [2] (setting [10]) were 90% and 100%, respectively.
